Test results reported in patent publication US10959966B2, “Compositions and methods for modulating HEXM1 expression” (CASE WESTERN RESERVE UNIVERSITY, priority 2014, dated 2021).

How the values were obtained:
[1] = cited from earlier work
[2] = tested on: p21 expression in breast cancer MCF7 cells; experiment: p21 expression by western blot, MCF7 cells; format: cell-based; conditions: 5 mM HMBA or 50 μM 4a1, 18 hours
Description: (§1) FIGS. 7(A-B) illustrate Western blots showing (A) MCF7 (control siRNA or HEXIM1 siRNA) and (B) LNCaP (control shRNA or HEXIM1 shRNA) cells treated with vehicle (DMSO), 5 mM HMBA, or 50 μM 4a1 for 18 hours.
(§2) Cell lysates were analyzed by western blot as previously described. Anti-HEXIM1 was generated in the Montano laboratory. Primary antibodies against p21 (C-19; cat# sc-397), cyclin D1 (HD11; cat# sc-246) and myc (9E10; cat# sc-40) were obtained from Santa Cruz Biotechnology. Anti-GAPDH was obtained from Millipore. Anti-HIF-1α was obtained from Oxy-cell, Bioresearch).
(§3) HMBA was investigated in a Phase II clinical trial due to its potent anti-cancer and cell differentiation activities. Moreover, the roles of HMBA, and potentially 4a1, as differentiating factors are advantageous for their therapeutic use when compared to cytotoxic agents. […] We also examined the ability of 4a1 to induce differentiation and the relative role of HEXIM1.

[3] = tested on: HEXIM1 expression in MCF7/TOTR cells; experiment: HEXIM1 expression in tamoxifen resistant MCF7/TOTR cells; format: cell-based; conditions: 5 mM HMBA or 50 μM 4a1
Description: (§4) FIGS. 9(A-B) illustrate a Western blot and plots showing HEXIM1 expression in MCF7 and MCF7(TOTR) cells in the presence of vehicle (DMSO), 5 mM HMBA or 50 μM 4a1.
(§5) MCF7, MDA-MB-231, and LNCaP cells were obtained from the American Tissue Culture Collection, and were maintained as previously described. Construction of expression vectors for control miRNA or HEXIM1 miRNAs were described previously. MCF7 or LNCaP cells were transfected with expression vectors containing either the HEXIM1 miRNA insert or a control miRNA insert as previously described. Following blasticidin selection, cells expressing the highest level of GFP were flow-sorted and expanded. MDA-MB-231 cells were transfected with control or expression vector for Flag-tagged HEXIM1 as previously described. […]
Cell lysates were analyzed by western blot as previously described. […]
(§6) We have reported that HEXIM1 is required for the ability of antiestrogens to inhibit the activity of the Estrogen Receptor, that loss of HEXIM1 results in agonistic activity of tamoxifen, and that recurrence after tamoxifen therapy can be correlated with loss of HEXIM1 expression in human breast tissue samples. Thus we determined if HMBA and 4a1 can enhance sensitivity to tamoxifen of a tamoxifen resistant breast cancer line (MCF7/TOTR). […]

[4] = tested on: recruitment of CDK9 to HEXIM1 gene in LNCaP cells; experiment: ChIP assay, CDK9 recruitment to HEXIM1 gene, LNCaP cells; format: cell-based; conditions: 5 mM HMBA or 50 μM 4a1, 90 minutes
Description: (§7) FIGS. 6(A-B) illustrate graphs showing HEXIM1 graphs showing HMBA and 4a1 induced recruitment of CDK9 to HEXIM1 promoter in MCF7 and LNCaP cells treated with 5 mM HMBA or 50 μM 4a1 for 90 minutes.
(§8) ChIP assays were carried out as previously described. Anti-CDK9 antibody (D-7; cat# sc-13130) was obtained from Santa Cruz Biotechnology.
(§9) The induction of HEXIM1 by HMBA appears to involve the release of free P-TEFb from 7SK snRNP, and recruitment of P-TEFb to HEXIM1 gene. P-TEFb is a heterodimer between the cyclin-dependent kinase 9 (Cdk9) and its regulatory subunit Cyclin T1 (CycT1). We thus determined the regulation of the recruitment of CDK9 to the HEXIM1 coding sequence by HMBA and 4a1.

[5] = tested on: recruitment of CDK9 to HEXIM1 gene in MCF7 cells; experiment: ChIP assay, CDK9 recruitment to HEXIM1 gene, MCF7 cells; format: cell-based; conditions: 5 mM HMBA or 50 μM 4a1, 90 minutes
Description: as §7, §8, §9

[6] = administered in vivo; cited from earlier work
[7] = tested on: p21 expression in prostate cancer LNCaP cells; experiment: p21 expression by western blot, LNCaP cells; format: cell-based; conditions: 5 mM HMBA or 50 μM 4a1, 18 hours
Description: as §1, §2, §3

HEXIM1 = conditions: in vitro cell cultures; cited from earlier work
[8] = tested on: HEXIM1 targets in MCF7 cells; experiment: Western blot of HEXIM1 targets in MCF7 cells; format: cell-based; conditions: 5 mM HMBA or 50 uM 4a1, 18 h, relative to GAPDH
Description: FIG. 10 illustrates a Western blot of MCF7 cells treated with vehicle, 5 mM HMBA, or 50 uM 4a1 for 18 h, and processes for analyses of HEXIM1 targets relative to GAPDH.
as §2
To assess the clinical potential of HMBA and 4a1 we need to determine to what extent the targets of HMBA and 4a1 overlap with that of HEXIM1. We focused on direct targets of HEXIM1 that we have identified.

MCF7 cells = experiment: Nile red staining of lipid droplets (differentiation marker), MCF7 cells; format: cell-based; conditions: 72 hours
Description: (§10) FIGS. 8(A-B) illustrate images showing (A) MCF7 cells transfected with control or HEXIM1 siRNA or (B) MDA-MB-231 transfected with control or HEXIM1 expression vector treated with vehicle (DMSO), HMBA, or 4a1 for 72 hours. Lower panels show Western blot analyses of HEXIM1 expression in MDA-MB-231 cells transfected with control or expression vector for Flag-tagged HEXIM1.
(§11) Cells were stained with Nile red for lipid droplets (marker of cell differentiation). Briefly, the stock solution of Nile red 1 mg/ml in acetone was diluted in PBS (1:1000). The fixed cells (4% paraformaldehyde) were incubated with diluted Nile red for 5 minutes at room temperature, rinsed with PBS and observed for the presence of lipid droplets by confocal microscopy. Images were digitally captured using a Leica microscope (Leica Microsystems Inc, IL, USA).

[9] = tested on: tamoxifen resistant breast cancer line (MCF7/TOTR); experiment: MTT proliferation assay, sensitivity to trans-hydroxytamoxifen; format: cell-based; conditions: 7 days, 5 mM HMBA or 50 μM 4a1
Description: as §4
as §5, with “expanded.” for “expanded. MDA-MB-231 cells were transfected with control or expression vector for Flag-tagged HEXIM1 as previously described.”
MCF7 cells were plated onto 96 well plates and treated with 17β-estradiol±trans-hydroxytamoxifen in the presence of DMSO (vehicle), HMBA or 4a1 for 7 days. Cell proliferation was assessed using the MTT based Cell Growth Determination Kit from Sigma-Aldrich according to the manufacturer's protocol.
as §6

[10] = in vivo; cited from earlier work
[11] = tested on: triple negative MDA-MB-231 breast cancer cells; experiment: Nile red staining of lipid droplets (differentiation marker), MDA-MB-231 cells; format: cell-based; conditions: 72 hours
Description: as §10, §11

CC(=O)NCCCCCCNC(C)=O [HMBA, Hexamethylene bis-acetamide, reference compound]
Water solubility [1]: water soluble
p21 expression [2]: induced p21 expression
HEXIM1 expression [3]: induced HEXIM1 expression
Recruitment of CDK9 to HEXIM1 gene [4]: induce recruitment of CDK9
Recruitment of CDK9 to HEXIM1 gene [5]: induce recruitment of CDK9
Half-life [6]: short half-life
Tissue distribution [6]: poor tissue distribution
p21 expression [7]: induction of p21 expression
Concentrations at which HMBA induces HEXIM1 (HEXIM1): one to five
Expression of proteins directly regulated by HEXIM1 [8]: regulated expression of proteins
Cell differentiation (lipid droplets, Nile red) (MCF7 cells): induced differentiation
Sensitivity of TOTR cells to trans-hydroxytamoxifen [9]: enhanced the sensitivity
Toxicity in Phase II clinical trial [10]: dose-dependent toxicity
Cell differentiation (lipid droplets, Nile red) [11]: induced differentiation
